# Measurements: paper PMC9995496, “A screen for MeCP2-TBL1 interaction inhibitors using a luminescence-based assay” (Scientific Reports, 2023)
# Counter-ions that a name gives are not always drawn.
# System: PRKACA-PRKAR2A interaction (SmBiT-PRKACA / LgBiT-PRKAR2A), protein kinase A
# Parameters: NanoLuc complementation counter-screen in cell extract, PRKACA with PRKAR2A, loss of luminescence, detects NanoLuc interference
# Conditions: 0.5 h, 20 µM; inhibitor
row,SMILES,Inh (PKA) [%]
1,"O=P1(NCCCl)OCCCN1CCCl (stereo not shown) [UM0118931:03, Ifosfamide]",-0.3336

# Same assay, conditions: counter-screen for NanoLuc interference, 0.5 h, 20 µM, inhibitor, Inh (PKA)
row,Inh (PKA) [%],SMILES
1,0.5416,"NCCc1c[nH]cn1 [UM0119882:03, Histamine 2HCl]"

# Same assay, conditions: counter-screen for NanoLuc interference; 0.5 h, 20 µM; inhibitor
row,Inh (PKA) [%],SMILES
1,1.097,"CC(=O)N[C@@H](CS)C(=O)O [UM0119535:03, Acetylcysteine]"
2,4.422,"COc1ccc(C(=O)N2CCCC2=O)cc1 [UM0119560:03, Aniracetam]"
3,-0.9754,"NC(=O)c1ccccc1 [UM0119596:03, Benzamide]"
4,4.034,"O=C1CCc2cc(OCCCCc3nnnn3C3CCCCC3)ccc2N1 [UM0119639:03, Cilostazol]"
5,2.512,"C[C@@](Cc1ccc(O)c(O)c1)(NN)C(=O)O [UM0119735:03, Carbidopa]"
6,1.983,"NCCc1ccc(O)c(O)c1 [UM0119875:03, Dopamine HCl]"
7,17.89,"O=S(=O)(c1cccc2c(I)cccc12)N1CCCNCC1 [UM0119920:03, ML-7 hydrochloride]"
8,40.28,"COc1ccc2c(c1)c(CC(=O)N1CCOCC1)c(C)n2C(=O)c1ccc(Cl)cc1 [UM0119946:02, BML-190]"
9,0.956,"Nc1nnc(-c2cccc(Cl)c2Cl)c(N)n1 [UM0119947:03, Lamotrigine]"
10,12.97,"COc1cc2c(cc1O)CC[C@@H]1[C@@H]2CC[C@]2(C)[C@@H](O)CC[C@@H]12 [UM0119979:04, 2-Methoxyestradiol (2-MeOE2)]"
11,-0.2089,"NC(=O)c1ncn([C@@H]2O[C@H](CO)[C@@H](O)[C@H]2O)c1O [UM0119983:03, Mizoribine]"
12,-0.9184,"CSC(=N)N [UM0119990:03, (S)-Methylisothiourea sulfate]"
13,2.182,"O=[N+]([O-])c1cccc2cn[nH]c12 [UM0120050:03, 7-Nitroindazole]"
14,18.59,"CC(C)N(CCC(=O)c1ccc2ccccc2c1)Cc1ccccc1 [UM0120052:04, ZM 39923 HCl]"
15,0.7851,"CNC[C@H](O)c1cccc(O)c1 [UM0120096:03, Phenylephrine HCl]"
16,13.75,"S=C(S)N1CCCC1 [UM0120164:03, Pyrrolidinedithiocarbamate ammonium]"

row,Inh (PKA) [%],SMILES
1,-1.533,"NCCS(=O)(=O)O [UM0120232:03, Taurine]"
2,48.6,"N#CC(C#N)=Cc1ccc(O)c(O)c1 [UM0120250:03, AG-18]"
3,1.156,"Nc1nccs1 [UM0120610:02, Aminothiazole]"
4,1.741,"O=c1oc2cc(O)ccc2s1 [UM0120621:02, Tioxolone]"
5,-0.7865,"N[C@@H](CCC(=O)N[C@@H](CS)C(=O)NCC(=O)O)C(=O)O [UM0120654:03, L-Glutathione Reduced]"
6,-0.4526,"O=C(O)c1cc(O)c(O)c(O)c1 [UM0120666:03, Gallic acid]"
7,14.51,"Cc1cc(O)c2c(c1)C(=O)c1cccc(O)c1C2=O [UM0121046:03, Chrysophanol]"
8,-0.3205,"CN(C)CCC[C@@]1(c2ccc(F)cc2)OCc2cc(C#N)ccc21 [UM0121246:02, Escitalopram Oxalate]"
9,6.005,"CCC(=O)NCC[C@@H]1CCc2ccc3c(c21)CCO3 [UM0121254:03, Ramelteon]"
10,-0.2371,"COc1ccnc(C[S+]([O-])c2nc3cc(OC(F)F)ccc3[nH]2)c1OC (stereo not shown) [UM0121277:03, Pantoprazole]"
11,16.21,"Cc1ccc(-c2cc(C(F)(F)F)nn2-c2ccc(S(N)(=O)=O)cc2)cc1 [UM0121289:03, Celecoxib]"
12,9.885,"Cc1onc(-c2ccccc2)c1-c1ccc(S(N)(=O)=O)cc1 [UM0121300:03, Valdecoxib]"
13,12.71,"CN(CCOc1ccc(CC2SC(=O)NC2=O)cc1)c1ccccn1 (stereo not shown) [UM0121306:03, Rosiglitazone]"
14,-0.4605,"CN(C)CCc1c[nH]c2ccc(C[C@H]3COC(=O)N3)cc12 [UM0121308:03, Zolmitriptan]"
15,-0.4329,"CCOC(=O)[C@H](CCc1ccccc1)N[C@H]1CCc2ccccc2N(CC(=O)O)C1=O [UM0121340:03, Benazepril HCl]"
16,0.6112,"CC[C@H]1OC(=O)[C@H](C)[C@@H](O[C@H]2C[C@@](C)(OC)[C@@H](O)[C@H](C)O2)[C@H](C)[C@@H](O[C@@H]2O[C@H](C)C[C@H](N(C)C)[C@H]2O)[C@](C)(O)C[C@@H](C)CN(C)[C@H](C)[C@@H](O)[C@]1(C)O [UM0121404:03, Azithromycin]"

# The next lines start with the molecule.
row,SMILES,Inh (PKA) [%]
1,"CCN[C@H]1CN(CCCOC)S(=O)(=O)c2sc(S(N)(=O)=O)cc21 [UM0118906:03, Brinzolamide]",-0.219
2,"CCN[C@H]1C[C@H](C)S(=O)(=O)c2sc(S(N)(=O)=O)cc21 [UM0118923:03, Dorzolamide HCl]",-0.4651
3,"CS(=O)(=O)c1ccc([C@@H](O)[C@@H](CF)NC(=O)C(Cl)Cl)cc1 [UM0118980:03, Florfenicol]",-0.2471
4,"Cc1c(OCC(F)(F)F)ccnc1C[S+]([O-])c1nc2ccccc2[nH]1 (stereo not shown) [UM0118982:03, Lansoprazole]",1.885
5,"Cc1c(OCC(F)(F)F)ccnc1C[S@@+]([O-])c1nc2ccccc2[nH]1 [UM0118982:04, Dexlansoprazole]",2.726
6,"CC(C)(Oc1ccc(C2CC2(Cl)Cl)cc1)C(=O)O (stereo not shown) [UM0119000:03, Ciprofibrate]",9.84
7,"CCOC(=O)c1ccc(OC(=O)CCCCCNC(=N)N)cc1 [UM0119043:03, Gabexate mesylate]",2.691
8,"Nc1ccc(O)c(C(=O)O)c1 [UM0119062:03, Mesalamine]",8.926
9,"CC(C)(C(=O)c1cccnc1)c1cccnc1 [UM0119067:03, Metyrapone]",1.858
10,"Cc1cccc(Nc2ccncc2S(=O)(=O)NC(=O)NC(C)C)c1 [UM0119116:03, Torsemide]",21.46
11,"O=C(O[C@@H]1Cc2c(O)cc(O)cc2O[C@@H]1c1cc(O)c(O)c(O)c1)c1cc(O)c(O)c(O)c1 [UM0119174:03, (-)-Epigallocatechin gallate (EGCG)]",17.48
12,"O=C1Cc2c([nH]c3ccc(Br)cc23)-c2ccccc2N1 [UM0119194:04, Kenpaullone]",40.47
13,"O=c1oc2c(O)c(O)cc3c(=O)oc4c(O)c(O)cc1c4c23 [UM0119370:03, Ellagic acid]",2.639
14,"CCCCCCCCCCC[C@@H](C[C@@H]1OC(=O)[C@H]1CCCCCC)OC(=O)[C@H](CC(C)C)NC=O [UM0119382:03, Orlistat]",-0.3481
15,"C=CCc1ccc(O)c(-c2ccc(O)c(CC=C)c2)c1 [UM0119411:03, Honokiol]",48.27
16,"c1ccc2c(Cc3c[nH]c4ccccc34)c[nH]c2c1 [UM0119470:03, 3,3'-Diindolylmethane]",34.9
17,"Nc1ccncc1 [UM0119500:03, 4-Aminopyridine]",0.4521
18,"CC(=O)Oc1ccccc1C(=O)O [UM0119503:03, Aspirin (Acetylsalicylic acid)]",1.275
19,"CC(C)(C)c1cc(C=C(C#N)C#N)cc(C(C)(C)C)c1O [UM0120315:03, Tyrphostin 9]",80.34
20,"O=C(O)CC(O)(CC(=O)O)C(=O)O [UM0121350:03, Lithium Citrate]",-1.116
21,"Oc1c(Cl)cc(Cl)c(Cl)c1Cc1c(O)c(Cl)cc(Cl)c1Cl [UM0121388:04, Hexachlorophene]",52.78
